Experimental findings from ChEMBL document CHEMBL1141382, “Studies leading to potent, dual inhibitors of Bcl-2 and Bcl-xL” (J Med Chem, 2007) are described below.

Assay [1] addresses T1, Bcl-2-like protein 1 (Homo sapiens, UniProt Q07817). In words: Displacement of Bad-derived peptide from Bcl-xL by fluorescence polarization assay. On the technique in general: Fluorescence polarisation rises when a labelled molecule tumbles more slowly, as on binding a larger partner.
Assay [2] has as its target Apoptosis regulator Bcl-2 (Homo sapiens, UniProt P10415). As to the kind of experiment: Displacement of Bax-derived peptide from Bcl2 by fluorescence polarization assay.
For assay [3], the target named is T1, Bcl-2-like protein 1. In words: Displacement of Bad-derived peptide from Bcl-xL by FPA in presence of 10% human serum.

A value given as a limit tells only on which side of the number the result lay.

Chain of Apoptosis regulator Bcl-2 (P10415 whole entry): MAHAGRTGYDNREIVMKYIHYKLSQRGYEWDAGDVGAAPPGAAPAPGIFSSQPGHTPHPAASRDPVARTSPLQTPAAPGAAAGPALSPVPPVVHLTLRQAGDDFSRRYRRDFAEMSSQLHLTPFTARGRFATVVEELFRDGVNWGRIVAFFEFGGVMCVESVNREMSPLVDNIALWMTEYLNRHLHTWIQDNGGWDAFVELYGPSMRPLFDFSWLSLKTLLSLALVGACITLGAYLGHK
T1 sequence (Q07817 whole entry): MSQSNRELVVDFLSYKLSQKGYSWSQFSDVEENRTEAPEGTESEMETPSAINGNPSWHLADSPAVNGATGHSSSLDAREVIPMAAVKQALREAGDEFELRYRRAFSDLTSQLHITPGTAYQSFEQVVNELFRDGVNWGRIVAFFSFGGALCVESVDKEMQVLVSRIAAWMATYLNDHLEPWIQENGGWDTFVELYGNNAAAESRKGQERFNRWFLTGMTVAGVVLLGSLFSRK

The term Ki denotes a dissociation constant, usually derived from enzyme kinetics or from competition with a known ligand. One may read the IC50 as the midpoint of a concentration-inhibition curve. As for `COC1(Cc2ccccc2Cl)CCN(c2ccc(C(=O)NS(=O)(=O)c3ccc(N[C@H](CCN(C)C)CSc4ccccc4)c([N+](=O)[O-])c3)cc2)CC1`, the Ki was < 0.5 nM in assay [1] and < 1 nM in assay [2]. The IC50 in assay [3] was found to be 62 nM.
As to `CN(C)CC[C@H](CSc1ccccc1)Nc1ccc(S(=O)(=O)NC(=O)c2ccc(N3CCC(=Cc4ccc(F)cc4)CC3)cc2)cc1[N+](=O)[O-]`, the results for the Ki in assay [1] and in assay [2] were < 0.5 nM and 3.4 nM, respectively. For the same compound, the IC50 in assay [3] was 520 nM.
For `COC1(CC(C)(C)C)CCN(c2ccc(C(=O)NS(=O)(=O)c3ccc(N[C@H](CCN(C)C)CSc4ccccc4)c([N+](=O)[O-])c3)cc2)CC1`, the Ki in assay [1] stood at 4.6 nM; in assay [2], 16 nM. In assay [3], the half-inhibitory concentration (IC50) amounted to 440 nM.
Regarding `COC1(CC2CCCCC2)CCN(c2ccc(C(=O)NS(=O)(=O)c3ccc(N[C@H](CCN(C)C)CSc4ccccc4)c([N+](=O)[O-])c3)cc2)CC1`, the inhibition constant (Ki) came to 0.8 nM in assay [1] and 6.6 nM in assay [2]. Further, the IC50 in assay [3] stood at 300 nM.
As to `CN(C)CC[C@H](CSc1ccccc1)Nc1ccc(S(=O)(=O)NC(=O)c2ccc(N3CCN(C(=O)Nc4ccccc4)CC3)cc2)cc1[N+](=O)[O-]`, the Ki is 2.5 nM in assay [1] and 300 nM in assay [2].
For `CSc1ccccc1CN1CCN(c2ccc(C(=O)NS(=O)(=O)c3ccc(N[C@H](CCN(C)C)CSc4ccccc4)c([N+](=O)[O-])c3)cc2)CC1`, the Ki in assay [1] was < 0.5 nM; in assay [2] it was < 1 nM. In assay [3], the IC50 was < 60 nM.
Taken in the same sequence, the figures for `COC1(CC(C)C)CCN(c2ccc(C(=O)NS(=O)(=O)c3ccc(N[C@H](CCN(C)C)CSc4ccccc4)c([N+](=O)[O-])c3)cc2)CC1` were 6.1 nM, 56 nM and 360 nM.
For the compound `CC1(C)CCN(c2ccc(C(=O)NS(=O)(=O)c3ccc(NC(C)(C)CSc4ccccc4)c([N+](=O)[O-])c3)cc2)CC1`, affinity in assay [1] was put at a Ki of 0.8 nM. In addition, the IC50 in assay [3] stood at 360 nM.
Turning to `CN(C)CC[C@H](CSc1ccccc1)Nc1ccc(S(=O)(=O)NC(=O)c2ccc(N3CCC4(CC3)CC(c3ccccc3)=NO4)cc2)cc1[N+](=O)[O-]`, the Ki in assay [1] is 4.4 nM; in assay [2] it was 35.2 nM.
For `CN(C)CC[C@H](CSc1ccccc1)Nc1ccc(S(=O)(=O)NC(=O)c2ccc(N3CCN(C(=O)c4ccccc4)CC3)cc2)cc1[N+](=O)[O-]`, in that order: < 1 nM and 61.9 nM.
`CN(C)CC[C@H](CSc1ccccc1)Nc1ccc(S(=O)(=O)NC(=O)c2ccc(N3CCC(=Cc4ccccn4)CC3)cc2)cc1[N+](=O)[O-]`: the values for the Ki in assay [1] and in assay [2] were 3.6 nM and 46 nM, respectively. The IC50 in assay [3] worked out at 700 nM.
Regarding `CCCCCC1(OC)CCN(c2ccc(C(=O)NS(=O)(=O)c3ccc(N[C@H](CCN(C)C)CSc4ccccc4)c([N+](=O)[O-])c3)cc2)CC1`, the Ki in assay [1] was determined as 1.3 nM; in assay [2], 20 nM. Besides, the IC50 in assay [3] was 312 nM.
As to `Cc1ccc(S(=O)(=O)N2CCN(c3ccc(C(=O)NS(=O)(=O)c4ccc(N[C@H](CCN(C)C)CSc5ccccc5)c([N+](=O)[O-])c4)cc3)CC2)cc1`, the Ki in assay [1] is 4 nM; in assay [2] it was 6.1 nM.
As to `COC1(Cc2ccc(-c3ccccc3)cc2)CCN(c2ccc(C(=O)NS(=O)(=O)c3ccc(N[C@H](CCN(C)C)CSc4ccccc4)c([N+](=O)[O-])c3)cc2)CC1`, the Ki in assay [1] is 0.9 nM; in assay [2], < 1 nM. The IC50 in assay [3] was 160 nM.
`CN(C)CC[C@H](CSc1ccccc1)Nc1ccc(S(=O)(=O)NC(=O)c2ccc(N3CCC(=Cc4ccc(Cl)cc4)CC3)cc2)cc1[N+](=O)[O-]`: the figures for the Ki in assay [1] and in assay [2] were < 0.5 nM and 2.1 nM, respectively. Also, the IC50 in assay [3] is 510 nM.
With `COc1ccccc1CC1(OC)CCN(c2ccc(C(=O)NS(=O)(=O)c3ccc(N[C@H](CCN(C)C)CSc4ccccc4)c([N+](=O)[O-])c3)cc2)CC1`, the results for the Ki in assay [1] and in assay [2] were 1.1 nM and 1.6 nM, respectively. Moreover, the IC50 in assay [3] came to 75 nM.
For the compound `COC1(Cc2ccccc2)CCN(c2ccc(C(=O)NS(=O)(=O)c3ccc(N[C@H](CCN(C)C)CSc4ccccc4)c([N+](=O)[O-])c3)cc2)CC1`, the Ki came out at 1.8 nM in assay [1] and 8.1 nM in assay [2]. The concentration for half-maximal inhibition (IC50) in assay [3] is 150 nM.
As to `COC1(Cc2ccccc2C)CCN(c2ccc(C(=O)NS(=O)(=O)c3ccc(N[C@H](CCN(C)C)CSc4ccccc4)c([N+](=O)[O-])c3)cc2)CC1`, the Ki in assay [1] is < 0.5 nM; in assay [2], 1.4 nM. Moreover, the IC50 in assay [3] came to 71 nM.
For the compound `CN(C)CC[C@H](CSc1ccccc1)Nc1ccc(S(=O)(=O)NC(=O)c2ccc(N3CCC(=Cc4ccccc4Cl)CC3)cc2)cc1[N+](=O)[O-]`, the Ki is < 0.5 nM in assay [1] and 0.7 nM in assay [2]. The IC50 in assay [3] amounted to 700 nM.
On to `CN(C)CC[C@H](CSc1ccccc1)Nc1ccc(S(=O)(=O)NC(=O)c2ccc(N3CCN(Cc4ccccc4C(F)(F)F)CC3)cc2)cc1[N+](=O)[O-]`, for which the Ki in assay [1] was < 0.5 nM; in assay [2], < 1 nM. The IC50 in assay [3] was 85 nM.
For `CN(C)CC[C@H](CSc1ccccc1)Nc1ccc(S(=O)(=O)NC(=O)c2ccc(N3CCC(=Cc4ccc(C(F)(F)F)cc4)CC3)cc2)cc1[N+](=O)[O-]`, in that order: 1.4 nM, 9.4 nM and 1300 nM.
In the case of `CN(C)CC[C@H](CSc1ccccc1)Nc1ccc(S(=O)(=O)NC(=O)c2ccc(N3CCN(Cc4ccccc4-c4cccnc4)CC3)cc2)cc1[N+](=O)[O-]`, the Ki was < 0.5 nM in assay [1] and 1 nM in assay [2]. Further, the IC50 in assay [3] was 81 nM.
For `Cc1ccccc1CN1CCN(c2ccc(C(=O)NS(=O)(=O)c3ccc(N[C@H](CCN(C)C)CSc4ccccc4)c([N+](=O)[O-])c3)cc2)CC1`, in that order: 3 nM, 4.5 nM and 140 nM.
On to `COC1(Cc2cccc(Cl)c2)CCN(c2ccc(C(=O)NS(=O)(=O)c3ccc(N[C@H](CCN(C)C)CSc4ccccc4)c([N+](=O)[O-])c3)cc2)CC1`, for which the values for the Ki in assay [1] and in assay [2] were < 0.5 nM and 1.8 nM, respectively. For the same compound, the IC50 in assay [3] is 170 nM.
For `COC1(Cc2ccccc2-c2ccccc2)CCN(c2ccc(C(=O)NS(=O)(=O)c3ccc(N[C@H](CCN(C)C)CSc4ccccc4)c([N+](=O)[O-])c3)cc2)CC1`, the Ki was < 0.5 nM in assay [1] and < 1 nM in assay [2]. Further, in assay [3], the IC50 was < 60 nM.
`CN(C)CC[C@H](CSc1ccccc1)Nc1ccc(S(=O)(=O)NC(=O)c2ccc(N3CCC(=Cc4ccccc4-c4ccccc4)CC3)cc2)cc1[N+](=O)[O-]`: the figures for the Ki in assay [1] and in assay [2] were < 0.5 nM and < 1 nM, respectively. For the same compound, the IC50 in assay [3] was determined as 83 nM.
As to `CN(C)CC[C@H](CSc1ccccc1)Nc1ccc(S(=O)(=O)NC(=O)c2ccc(N3CCC4(CC3)CC(Cc3ccccc3)=NO4)cc2)cc1[N+](=O)[O-]`, the results for the Ki in assay [1] and in assay [2] were 1.7 nM and 6.5 nM, respectively.
`COC1(Cc2ccccc2F)CCN(c2ccc(C(=O)NS(=O)(=O)c3ccc(N[C@H](CCN(C)C)CSc4ccccc4)c([N+](=O)[O-])c3)cc2)CC1`: the results for the Ki in assay [1] and in assay [2] were 0.9 nM and 3.1 nM, respectively. Further, in assay [3], the IC50 amounted to 79 nM.
Turning to `CN(C)CC[C@H](CSc1ccccc1)Nc1ccc(S(=O)(=O)NC(=O)c2ccc(N3CCN(Cc4ccccc4N4CCOCC4)CC3)cc2)cc1[N+](=O)[O-]`, the Ki in assay [1] was < 0.5 nM; in assay [2] it was < 1 nM. In assay [3], the IC50 is < 60 nM.
As for `COC1(Cc2ccccc2Br)CCN(c2ccc(C(=O)NS(=O)(=O)c3ccc(N[C@H](CCN(C)C)CSc4ccccc4)c([N+](=O)[O-])c3)cc2)CC1`, the results for the inhibition constant Ki in assay [1] and in assay [2] were < 0.5 nM and 1.5 nM, respectively. Moreover, the IC50 in assay [3] is < 60 nM.
For `COc1ccccc1CN1CCN(c2ccc(C(=O)NS(=O)(=O)c3ccc(N[C@H](CCN(C)C)CSc4ccccc4)c([N+](=O)[O-])c3)cc2)CC1`, the Ki in assay [1] was < 0.5 nM; in assay [2] it was 3.2 nM. The IC50 in assay [3] amounted to 80 nM.
With `CN(C)CC[C@H](CSc1ccccc1)Nc1ccc(S(=O)(=O)NC(=O)c2ccc(N3CCC(=Cc4ccccc4C#N)CC3)cc2)cc1[N+](=O)[O-]`, the Ki in assay [1] is < 0.5 nM; in assay [2], 13 nM. Moreover, the IC50 in assay [3] stood at 520 nM.
As to `COC1(Cc2ccc(Cl)cc2)CCN(c2ccc(C(=O)NS(=O)(=O)c3ccc(N[C@H](CCN(C)C)CSc4ccccc4)c([N+](=O)[O-])c3)cc2)CC1`, the Ki in assay [1] was found to be 0.9 nM; in assay [2] it was 2.7 nM. In addition, the IC50 in assay [3] is 200 nM.
Turning to `CN(C)CC[C@H](CSc1ccccc1)Nc1ccc(S(=O)(=O)NC(=O)c2ccc(N3CCN(Cc4ccccc4NC4CCCCC4)CC3)cc2)cc1[N+](=O)[O-]`, the Ki in assay [1] came to 0.6 nM; in assay [2] it was 3.5 nM. For the same compound, the IC50 in assay [3] is 370 nM.
For `CN(C)CC[C@H](CSc1ccccc1)Nc1ccc(S(=O)(=O)NC(=O)c2ccc(N3CCC(=Cc4cccnc4)CC3)cc2)cc1[N+](=O)[O-]`, in that order: 1.3 nM, 68 nM and 2800 nM.
`COc1ccccc1C=C1CCN(c2ccc(C(=O)NS(=O)(=O)c3ccc(N[C@H](CCN(C)C)CSc4ccccc4)c([N+](=O)[O-])c3)cc2)CC1`: the Ki in assay [1] turned out to be 0.6 nM; in assay [2] it was 2 nM. Moreover, in assay [3], the IC50 was determined as 760 nM.
Turning to `CN(C)CC[C@H](CSc1ccccc1)Nc1ccc(S(=O)(=O)NC(=O)c2ccc(N3CCN(Cc4ccccc4C4CCCCC4)CC3)cc2)cc1[N+](=O)[O-]`, the Ki in assay [1] was < 0.5 nM; in assay [2], < 1 nM. Besides, the IC50 in assay [3] was determined as 61 nM.
Regarding `CN(C)CC[C@H](CSc1ccccc1)Nc1ccc(S(=O)(=O)NC(=O)c2ccc(N3CCC(=Cc4ccccc4C(F)(F)F)CC3)cc2)cc1[N+](=O)[O-]`, the figures for the Ki in assay [1] and in assay [2] were < 0.5 nM and 2 nM, respectively. The IC50 in assay [3] was found to be 300 nM.
For `CN(C)CC[C@H](CSc1ccccc1)Nc1ccc(S(=O)(=O)NC(=O)c2ccc(N3CCN(Cc4ccccc4)CC3)cc2)cc1[N+](=O)[O-]`, in that order: 2.6 nM, 39.8 nM and 350 nM.
For the compound `CC1OC2(CCN(c3ccc(C(=O)NS(=O)(=O)c4ccc(N[C@H](CCN(C)C)CSc5ccccc5)c([N+](=O)[O-])c4)cc3)CC2)N(Cc2ccccc2)C1=O` (stereo partly drawn), the Ki came to 3.7 nM in assay [1] and 9.6 nM in assay [2].
